Data as given in ChEMBL document CHEMBL5465560, “Selectivity Literature for EUbOPEN Chemogenomic Library” (2024).

Assays:
[1] = target: T1, Tyrosine-protein kinase ZAP-70 (Homo sapiens) (UniProt P43403); test: Selectivity interaction (KinomeScan (DiscoverX)) EUB0000666a ZAP70; settings: at 10 µM
T1 sequence (whole entry): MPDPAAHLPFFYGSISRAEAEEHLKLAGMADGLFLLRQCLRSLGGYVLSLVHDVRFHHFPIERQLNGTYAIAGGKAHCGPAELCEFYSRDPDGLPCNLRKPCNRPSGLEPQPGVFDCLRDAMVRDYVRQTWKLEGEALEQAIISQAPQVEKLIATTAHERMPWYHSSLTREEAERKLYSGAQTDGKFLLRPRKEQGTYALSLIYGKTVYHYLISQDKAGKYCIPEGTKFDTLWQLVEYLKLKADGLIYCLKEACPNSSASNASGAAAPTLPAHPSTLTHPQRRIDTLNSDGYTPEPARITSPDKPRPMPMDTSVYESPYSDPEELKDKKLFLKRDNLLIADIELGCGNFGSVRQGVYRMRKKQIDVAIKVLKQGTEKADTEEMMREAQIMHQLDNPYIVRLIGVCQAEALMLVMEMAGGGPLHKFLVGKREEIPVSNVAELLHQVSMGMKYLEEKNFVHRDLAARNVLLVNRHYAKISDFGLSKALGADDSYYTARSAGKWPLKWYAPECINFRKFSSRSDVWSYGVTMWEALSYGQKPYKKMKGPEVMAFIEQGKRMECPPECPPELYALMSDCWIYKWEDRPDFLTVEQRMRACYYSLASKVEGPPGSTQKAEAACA

[2] = target: Histone-lysine N-methyltransferase SUV39H2 (Homo sapiens) (UniProt Q9H5I1); settings: at 10 µM
Sequence of Histone-lysine N-methyltransferase SUV39H2 (Homo sapiens) (Q9H5I1 whole entry): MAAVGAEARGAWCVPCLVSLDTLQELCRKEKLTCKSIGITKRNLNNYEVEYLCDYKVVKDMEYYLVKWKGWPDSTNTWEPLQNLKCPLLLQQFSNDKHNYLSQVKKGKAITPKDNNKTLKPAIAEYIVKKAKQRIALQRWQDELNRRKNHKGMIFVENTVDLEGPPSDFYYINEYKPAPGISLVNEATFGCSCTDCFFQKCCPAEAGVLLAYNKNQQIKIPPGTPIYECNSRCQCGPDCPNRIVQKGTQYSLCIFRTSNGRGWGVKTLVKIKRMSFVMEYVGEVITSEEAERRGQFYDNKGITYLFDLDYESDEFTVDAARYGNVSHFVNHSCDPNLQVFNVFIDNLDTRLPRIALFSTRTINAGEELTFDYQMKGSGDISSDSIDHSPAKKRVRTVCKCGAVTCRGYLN

[3] = target: T2, Mitogen-activated protein kinase kinase kinase 2 (Homo sapiens) (UniProt Q9Y2U5); test: Selectivity interaction (ActivX KiNativ screen (kinase selectivity in THP-1 cell lysates)) EUB0000639a MAP3K2; type: subcellular; settings: lysate, at 0.04 µM
T2 sequence (whole entry): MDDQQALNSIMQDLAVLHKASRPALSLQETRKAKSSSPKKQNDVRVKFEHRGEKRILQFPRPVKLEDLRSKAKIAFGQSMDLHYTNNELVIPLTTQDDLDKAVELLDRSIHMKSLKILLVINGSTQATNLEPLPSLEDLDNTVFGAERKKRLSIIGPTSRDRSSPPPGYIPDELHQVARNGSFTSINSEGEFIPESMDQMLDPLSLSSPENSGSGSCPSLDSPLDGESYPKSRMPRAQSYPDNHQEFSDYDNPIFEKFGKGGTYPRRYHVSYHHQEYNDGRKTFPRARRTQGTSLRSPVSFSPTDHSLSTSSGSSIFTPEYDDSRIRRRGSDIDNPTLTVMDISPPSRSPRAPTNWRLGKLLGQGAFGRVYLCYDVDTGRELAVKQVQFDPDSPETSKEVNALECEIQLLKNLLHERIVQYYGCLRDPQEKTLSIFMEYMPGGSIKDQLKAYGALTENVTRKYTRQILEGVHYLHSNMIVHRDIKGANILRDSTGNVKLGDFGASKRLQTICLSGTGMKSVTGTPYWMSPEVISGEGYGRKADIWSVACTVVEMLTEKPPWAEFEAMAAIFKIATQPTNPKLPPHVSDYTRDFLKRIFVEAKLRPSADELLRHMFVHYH

[4] = target: Mitogen-activated protein kinase kinase kinase 9 (Homo sapiens) (UniProt P80192); test: Selectivity interaction (Ambit KINOMEscan and KiNATiv profiling in Jurkat cells) EUB0000090b MAP3K9; type: cell-based; settings: at 1 µM
Sequence of Mitogen-activated protein kinase kinase kinase 9 (Homo sapiens) (P80192 whole entry, looked up): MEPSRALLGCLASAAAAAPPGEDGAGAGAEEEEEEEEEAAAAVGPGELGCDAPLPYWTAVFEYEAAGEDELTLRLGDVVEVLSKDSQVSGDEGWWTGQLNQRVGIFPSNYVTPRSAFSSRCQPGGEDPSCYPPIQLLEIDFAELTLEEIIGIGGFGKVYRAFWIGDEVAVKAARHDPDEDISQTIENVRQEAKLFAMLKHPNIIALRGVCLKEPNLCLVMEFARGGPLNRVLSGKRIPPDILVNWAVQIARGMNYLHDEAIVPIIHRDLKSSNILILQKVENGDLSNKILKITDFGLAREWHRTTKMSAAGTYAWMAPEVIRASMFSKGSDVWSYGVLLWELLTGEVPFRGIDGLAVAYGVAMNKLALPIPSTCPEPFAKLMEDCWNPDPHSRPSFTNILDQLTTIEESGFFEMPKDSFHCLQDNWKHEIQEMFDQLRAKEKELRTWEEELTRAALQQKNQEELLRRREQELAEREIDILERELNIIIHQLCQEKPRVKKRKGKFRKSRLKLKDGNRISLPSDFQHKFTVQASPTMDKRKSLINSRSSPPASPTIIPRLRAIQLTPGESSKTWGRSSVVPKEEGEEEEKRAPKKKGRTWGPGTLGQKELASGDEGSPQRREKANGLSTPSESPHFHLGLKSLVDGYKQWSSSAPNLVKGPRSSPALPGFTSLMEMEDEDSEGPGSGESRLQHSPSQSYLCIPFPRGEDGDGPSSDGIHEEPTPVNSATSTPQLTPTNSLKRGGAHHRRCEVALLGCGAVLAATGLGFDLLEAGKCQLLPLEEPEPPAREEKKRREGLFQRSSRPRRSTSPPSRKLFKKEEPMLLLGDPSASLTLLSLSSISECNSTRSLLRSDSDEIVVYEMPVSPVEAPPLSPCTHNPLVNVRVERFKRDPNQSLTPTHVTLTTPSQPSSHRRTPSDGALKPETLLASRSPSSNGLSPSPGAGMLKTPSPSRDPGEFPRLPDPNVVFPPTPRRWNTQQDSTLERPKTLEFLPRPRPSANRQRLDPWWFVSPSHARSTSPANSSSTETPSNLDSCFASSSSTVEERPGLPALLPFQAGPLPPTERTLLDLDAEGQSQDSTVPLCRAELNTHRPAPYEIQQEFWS

[5] = target: T3, Myotonin-protein kinase (Homo sapiens) (UniProt Q09013); test: Selectivity interaction (KinomeScan (DiscoverX)) EUB0000618a DMPK; settings: at 10 µM
T3 sequence (whole entry): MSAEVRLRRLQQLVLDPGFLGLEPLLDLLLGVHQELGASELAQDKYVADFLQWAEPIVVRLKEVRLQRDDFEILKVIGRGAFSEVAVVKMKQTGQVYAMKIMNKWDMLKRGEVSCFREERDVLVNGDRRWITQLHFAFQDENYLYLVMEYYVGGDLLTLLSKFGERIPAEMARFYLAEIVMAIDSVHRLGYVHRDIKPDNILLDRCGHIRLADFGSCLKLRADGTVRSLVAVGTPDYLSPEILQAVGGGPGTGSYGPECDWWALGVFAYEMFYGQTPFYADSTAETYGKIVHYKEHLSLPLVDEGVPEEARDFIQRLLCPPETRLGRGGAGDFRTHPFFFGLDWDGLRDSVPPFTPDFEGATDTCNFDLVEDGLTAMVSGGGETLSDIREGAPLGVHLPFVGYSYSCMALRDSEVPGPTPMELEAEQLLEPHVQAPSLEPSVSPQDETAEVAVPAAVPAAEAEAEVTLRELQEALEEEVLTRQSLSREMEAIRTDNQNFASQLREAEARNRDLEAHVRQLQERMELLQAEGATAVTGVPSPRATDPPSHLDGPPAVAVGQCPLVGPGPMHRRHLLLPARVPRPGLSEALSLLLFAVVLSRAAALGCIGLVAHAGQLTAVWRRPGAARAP

[6] = target: T4, Muscle, skeletal receptor tyrosine-protein kinase (Homo sapiens) (UniProt O15146); test: Selectivity interaction (SelectScreen profiling (Invitrogen)) EUB0000607a MUSK; settings: at 2 µM
T4 sequence (whole entry): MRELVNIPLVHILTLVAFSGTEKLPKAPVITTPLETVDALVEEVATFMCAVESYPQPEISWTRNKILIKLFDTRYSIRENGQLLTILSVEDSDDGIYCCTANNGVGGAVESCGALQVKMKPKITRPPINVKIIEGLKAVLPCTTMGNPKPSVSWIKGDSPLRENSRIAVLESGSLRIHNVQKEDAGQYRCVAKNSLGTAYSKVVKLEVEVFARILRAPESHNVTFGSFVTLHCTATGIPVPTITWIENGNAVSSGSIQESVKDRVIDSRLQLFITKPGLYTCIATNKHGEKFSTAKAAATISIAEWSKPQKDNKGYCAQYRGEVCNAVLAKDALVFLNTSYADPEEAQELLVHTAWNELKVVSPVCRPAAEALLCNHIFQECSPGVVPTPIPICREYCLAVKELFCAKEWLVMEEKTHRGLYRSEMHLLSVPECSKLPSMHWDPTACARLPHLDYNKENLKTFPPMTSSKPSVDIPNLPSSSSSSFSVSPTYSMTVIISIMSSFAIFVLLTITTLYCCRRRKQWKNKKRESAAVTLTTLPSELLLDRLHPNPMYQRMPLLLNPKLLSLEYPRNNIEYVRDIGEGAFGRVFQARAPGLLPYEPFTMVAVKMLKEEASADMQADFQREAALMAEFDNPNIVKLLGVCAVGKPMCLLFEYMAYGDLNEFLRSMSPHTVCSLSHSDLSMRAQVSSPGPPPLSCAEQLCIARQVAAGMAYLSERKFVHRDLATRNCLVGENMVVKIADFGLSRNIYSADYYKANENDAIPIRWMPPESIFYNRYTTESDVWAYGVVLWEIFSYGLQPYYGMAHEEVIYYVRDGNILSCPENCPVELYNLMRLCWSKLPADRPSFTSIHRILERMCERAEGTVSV

O=C(NOC[C@H](O)CO)c1ccc(F)c(F)c1Nc1ccc(I)cc1F
% of control [1]: 89%

CNCCN1CCC(c2cc(CN(C)C(=O)c3cccc(Oc4ccccc4)c3)ccn2)CC1
% activity [2]: > 90%

CC[C@@H]1[C@H](F)C(=O)N[C@@H]1COc1nccc2cc(C(N)=O)c(OC)cc12 [ZIMLOVISERTIB]
% of inhibition [3]: 1.8%

CN(C)C/C=C/C(=O)Nc1ccc(C(=O)N2CCCC(Nc3ncc(Cl)c(-c4c[nH]c5ccccc45)n3)C2)cc1 (stereo unspecified)
% of control [4]: 100%

O[C@H]1CC[C@H](Nc2ncc3nc(Nc4c(F)cc(F)cc4F)n([C@H]4CCOC4)c3n2)CC1
% of control [5]: 100%

CNC(=O)Nc1ccc(-c2nc(N3CC4CCC(C3)O4)c3cnn(C4CCC5(CC4)OCCO5)c3n2)cc1
% of inhibition [6]: 15%
